Assay results: patent publication US20250163104A1, “MACROCYCLIC IMMUNOMODULATORS” (priority 2021, published 2025)
*1 amine or outer side, *2 acyl side, *3 side chain or, on linkers, in order; H or OH if unused. Where a SMILES comes first, the peptide text is derived from it. Bridges are numbered along the chain shown (N, C = ends). [ ]: non-standard residue; d: D form. The star is where a group is joined. ξ: configuration not given here. Phe(4-COOH) = N[C@@H](Cc1ccc(C(=O)O)cc1)C(=O)O; Phe(3,4-F2) = N[C@@H](Cc1ccc(F)c(F)c1)C(=O)O; Phe(4-CH2NH2) = NCc1ccc(C[C@H](N)C(=O)O)cc1; Bip = N[C@@H](Cc1ccc(-c2ccccc2)cc1)C(=O)O; Phe(3-OMe) = COc1cccc(C[C@H](N)C(=O)O)c1; Phe(3-Me) = Cc1cccc(C[C@H](N)C(=O)O)c1; βAsp = O=C(O)[C@H](CC(=O)[*:2])N[*:1]; 3Pal = N[C@@H](Cc1cccnc1)C(=O)O; 4Pal = N[C@@H](Cc1ccncc1)C(=O)O; 3Thi = N[C@@H](Cc1ccsc1)C(=O)O; Cha = N[C@@H](CC1CCCCC1)C(=O)O; Cit = NC(=O)NCCC[C@H](N)C(=O)O; Ile(3ξ) = CCC(C)[C@H](N)C(=O)O; Thr(3ξ) = CC(O)[C@H](N)C(=O)O; Carboxymethyl = O=C(O)C*; Nle = CCCC[C@H](N)C(=O)O; Orn = NCCC[C@H](N)C(=O)O; Pra = C#CC[C@H](N)C(=O)O; Dab = NCC[C@H](N)C(=O)O; Dap = NC[C@H](N)C(=O)O

What follows are compounds tested against T1, human PD-1 / PD-L1-Ig binding on Jurkat cell line over-expressing human PD-1 (Jurkat-PD-1) (Homo sapiens, UniProt Q15116) (assay: Jurkat-PD-1 Cell Binding High-Content Screening Assay (CBA)). Conditions: Jurkat-PD-1 cells, PE-labeled PD-L1-Ig 20 nM final; read-out: Jurkat HPD1_PDL1 IC50.
T1 construct: expressed in transfected cells; host or cells: Jurkat
Assay type: cell-based
Summary of the method: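 Cell-bound PE-labeled PD-L1-Ig (20 nM final, 1 h) measured by high-content imaging after fixation and Hoechst 33342 counterstain. Compound was applied first for 2 h at 37° C. to Jurkat cells over-expressing human PD-1 in DMEM with 10% FCS.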

T1 sequence (Q15116 25-288): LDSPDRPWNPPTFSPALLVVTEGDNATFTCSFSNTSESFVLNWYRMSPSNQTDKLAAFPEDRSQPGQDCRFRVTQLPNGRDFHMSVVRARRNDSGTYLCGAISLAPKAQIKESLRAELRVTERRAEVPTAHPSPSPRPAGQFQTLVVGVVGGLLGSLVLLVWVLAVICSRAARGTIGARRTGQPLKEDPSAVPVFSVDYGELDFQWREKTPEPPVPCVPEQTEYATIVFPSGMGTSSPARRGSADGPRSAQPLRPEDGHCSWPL

Row | IC50 [nM] | Structure (SMILES)
1 | 48.2 | CC(C)C[C@H]1NC(=O)[C@H](CCCN)NC(=O)[C@H](CCCNC(N)=O)NC(=O)[C@H](Cc2ccc(-c3ccccc3)cc2)NC(=O)[C@H](C(C)C)NC(=O)[C@H](Cc2c[nH]c3ccccc23)NC(=O)[C@H](CC(=O)O)NC(=O)[C@H](Cc2ccc(F)c(F)c2)NC(=O)[C@H](CN)NC(=O)CSC[C@@H](C(=O)N[C@@H](C)C(N)=O)NC(=O)[C@H]([C@@H](C)O)NC(=O)[C@H](C(C)C)NC(=O)[C@H](CC2CCCCC2)NC(=O)[C@H](CCN)NC1=O [Compound 2129] ({CH2CO}-[Dap][Phe(3,4-F2)]DWV[Bip][Cit][Orn][dL][Dab][Cha]VTCA-NH2; thioether N-14)
2 | 73.1 | CCCC[C@@H]1NC(=O)[C@H](CCN)NC(=O)[C@@H](CC(C)C)NC(=O)[C@H](CCCN)NC(=O)[C@H](CCCNC(N)=O)NC(=O)[C@H](Cc2ccc(-c3ccccc3)cc2)NC(=O)[C@H](C(C)C)NC(=O)[C@H](Cc2c[nH]c3ccccc23)NC(=O)[C@H](CC(=O)O)NC(=O)[C@H](Cc2ccc(O)cc2)NC(=O)[C@H](CN)NC(=O)CSC[C@@H](C(=O)N[C@@H](C)C(N)=O)NC(=O)[C@H]([C@@H](C)O)NC(=O)[C@H](C(C)C)NC1=O [Compound 1158] ({CH2CO}-[Dap]YDWV[Bip][Cit][Orn][dL][Dab][Nle]VTCA-NH2; thioether N-14)
3 | 36.4 | Cc1cccc(C[C@@H]2NC(=O)[C@H](CC(=O)O)NC(=O)[C@H](Cc3ccc(OCC(=O)O)cc3)NC(=O)[C@H](Cc3ccc(OCC(=O)O)cc3)NC(=O)CSC[C@@H](C(N)=O)NC(=O)[C@H](CO)NC(=O)[C@H](C(C)C)NC(=O)[C@H](CC(C)C)NC(=O)[C@H](CCN)NC(=O)[C@@H](CC(C)C)NC(=O)[C@H](CCCN)NC(=O)[C@H](CCCNC(N)=O)NC(=O)[C@H](Cc3ccc(-c4ccccc4)cc3)NC(=O)[C@H](CC(C)C)NC2=O)c1 [Compound 1656] ({CH2CO}-Y(Carboxymethyl)Y(Carboxymethyl)D[Phe(3-Me)]L[Bip][Cit][Orn][dL][Dab]LVSC-NH2; thioether N-14)
4 | 10.9 | Cc1cccc(C[C@@H]2NC(=O)[C@H](CC(=O)O)NC(=O)[C@H](Cc3ccc(C(=O)O)cc3)NC(=O)[C@H](CN)NC(=O)CSC[C@@H](C(N)=O)NC(=O)[C@H](CO)NC(=O)[C@H](C(C)C)NC(=O)[C@H](CC3CCCCC3)NC(=O)[C@H](CCN)NC(=O)[C@@H](CC(C)C)NC(=O)[C@H](CCCN)NC(=O)[C@H](C(C)C)NC(=O)[C@H](Cc3ccc(-c4ccccc4)cc3)NC(=O)[C@H](Cc3ccc(CN)cc3)NC2=O)c1 [Compound 2031] ({CH2CO}-[Dap][Phe(4-COOH)]D[Phe(3-Me)][Phe(4-CH2NH2)][Bip]V[Orn][dL][Dab][Cha]VSC-NH2; thioether N-14)
5 | 16.1 | CCC(C)[C@@H]1NC(=O)[C@H](Cc2ccc(-c3ccccc3)cc2)NC(=O)[C@H](C(C)C)NC(=O)[C@H](Cc2c[nH]c3ccccc23)NC(=O)[C@H](CC(=O)O)NC(=O)[C@H](Cc2cccnc2)NC(=O)[C@H](CN)NC(=O)CSC[C@@H](C(=O)N[C@@H](C)C(N)=O)NC(=O)[C@H]([C@@H](C)O)NC(=O)[C@H](C(C)C)NC(=O)[C@H](CC2CCCCC2)NC(=O)[C@H](CCN)NC(=O)[C@@H](CC(C)C)NC(=O)[C@H](CCCN)NC1=O (stereo partly drawn) [Compound 2230] ({CH2CO}-[Dap][3Pal]DWV[Bip][Ile(3ξ)][Orn][dL][Dab][Cha]VTCA-NH2; thioether N-14)
6 | 25.8 | Cc1cccc(C[C@@H]2NC(=O)[C@H](CC(=O)O)NC(=O)[C@H](Cc3ccc(OCC(=O)O)cc3)NC(=O)[C@H](CN)NC(=O)CSC[C@@H](C(N)=O)NC(=O)[C@H](CCC(=O)O)NC(=O)[C@H](C(C)C)NC(=O)[C@H](CC3CCCCC3)NC(=O)[C@H](CCN)NC(=O)[C@@H](CC(C)C)NC(=O)[C@H](CCCN)NC(=O)[C@H](Cc3ccc(OCC(=O)O)cc3)NC(=O)[C@H](Cc3ccc(-c4ccccc4)cc3)NC(=O)[C@H](Cc3ccc(OCC(=O)O)cc3)NC2=O)c1 [Compound 1784] ({CH2CO}-[Dap]Y(Carboxymethyl)D[Phe(3-Me)]Y(Carboxymethyl)[Bip]Y(Carboxymethyl)[Orn][dL][Dab][Cha]VEC-NH2; thioether N-14)
7 | 10.1 | C#CC[C@H](NC(=O)C[C@H](NC(=O)[C@H](CCN)NC(=O)[C@@H]1CSCC(=O)N[C@@H](Cc2ccc(OCC(=O)O)cc2)C(=O)N[C@@H](Cc2ccncc2)C(=O)N[C@@H](CC(=O)O)C(=O)N[C@@H](Cc2cccc(C)c2)C(=O)N[C@@H](C(C)C)C(=O)N[C@@H](Cc2ccc(-c3ccccc3)cc2)C(=O)N[C@@H](CCCNC(N)=O)C(=O)N[C@@H](CCCN)C(=O)N[C@H](CC(C)C)C(=O)N[C@@H](CCN)C(=O)N[C@@H](CC2CCCCC2)C(=O)N[C@@H](C(C)C)C(=O)N[C@@H]([C@@H](C)O)C(=O)N1)C(=O)O)C(N)=O [Compound 1768] ({CH2CO}-Y(Carboxymethyl)[4Pal]D[Phe(3-Me)]V[Bip][Cit][Orn][dL][Dab][Cha]VTC[Dab][βAsp][Pra]-NH2; thioether N-14)

Second part, the compound before the results:

Row | Structure (SMILES) | IC50 [nM]
8 | COc1cccc(C[C@@H]2NC(=O)[C@H](CC(=O)O)NC(=O)[C@H](Cc3ccc(O)cc3)NC(=O)[C@H](CC(N)=O)NC(=O)CSC[C@@H](C(=O)N[C@@H](C)C(N)=O)NC(=O)[C@H]([C@@H](C)O)NC(=O)[C@H](C(C)C)NC(=O)[C@H](CC3CCCCC3)NC(=O)[C@H](CCN)NC(=O)[C@@H](CC(C)C)NC(=O)[C@H](CCCN)NC(=O)[C@H](CCC(=O)O)NC(=O)[C@H](Cc3ccc(-c4ccccc4)cc3)NC(=O)[C@H](C(C)C)NC2=O)c1 [Compound 1466] ({CH2CO}-NYD[Phe(3-OMe)]V[Bip]E[Orn][dL][Dab][Cha]VTCA-NH2; thioether N-14) | 16.3
9 | Cc1cccc(C[C@@H]2NC(=O)[C@H](CC(=O)O)NC(=O)[C@H](Cc3ccc(OCC(=O)O)cc3)NC(=O)[C@H](CN)NC(=O)CSC[C@@H](C(N)=O)NC(=O)[C@H]([C@@H](C)O)NC(=O)[C@H](C(C)C)NC(=O)[C@H](CC3CCCCC3)NC(=O)[C@H](CCC(=O)O)NC(=O)[C@@H](CC(C)C)NC(=O)[C@H](CCCN)NC(=O)[C@H](Cc3ccc(OCC(=O)O)cc3)NC(=O)[C@H](Cc3ccc(-c4ccccc4)cc3)NC(=O)[C@H](Cc3ccc(OCC(=O)O)cc3)NC2=O)c1 [Compound 1775] ({CH2CO}-[Dap]Y(Carboxymethyl)D[Phe(3-Me)]Y(Carboxymethyl)[Bip]Y(Carboxymethyl)[Orn][dL]E[Cha]VTC-NH2; thioether N-14) | 20.5
10 | CC(=O)NCCCC[C@@H]1NC(=O)[C@H](Cc2ccc(-c3ccccc3)cc2)NC(=O)[C@H](CC(C)C)NC(=O)[C@H](Cc2c[nH]c3ccccc23)NC(=O)[C@H](CC(=O)O)NC(=O)[C@H](Cc2ccc(OCC(=O)O)cc2)NC(=O)[C@H](C(C)O)NC(=O)CSC[C@@H](C(N)=O)NC(=O)[C@H](C(C)O)NC(=O)[C@H](C(C)C)NC(=O)[C@H](CC2CCCCC2)NC(=O)[C@H](CCC(=O)O)NC(=O)[C@@H](CC(C)C)NC(=O)[C@H](CCC(=O)O)NC1=O (stereo partly drawn) [Compound 2607] ({CH2CO}-[Thr(3ξ)]Y(Carboxymethyl)DWL[Bip]K(Ac)E[dL]E[Cha]V[Thr(3ξ)]C-NH2; thioether N-14) | 389
11 | Cc1cccc(C[C@@H]2NC(=O)[C@H](CC(N)=O)NC(=O)[C@H](Cc3ccc(C(=O)O)cc3)NC(=O)[C@H](CC(C)C)NC(=O)CSC[C@@H](C(=O)N[C@@H](CCN)C(N)=O)NC(=O)[C@H](CCC(=O)O)NC(=O)[C@H](C(C)C)NC(=O)[C@H](CC3CCCCC3)NC(=O)[C@H](CCN)NC(=O)[C@@H](CC(C)C)NC(=O)[C@H](CCCN)NC(=O)[C@H](Cc3ccc(C(=O)O)cc3)NC(=O)[C@H](Cc3ccc(-c4ccccc4)cc3)NC(=O)[C@H](Cc3ccc(C(=O)O)cc3)NC2=O)c1 [Example 2721] ({CH2CO}-L[Phe(4-COOH)]N[Phe(3-Me)][Phe(4-COOH)][Bip][Phe(4-COOH)][Orn][dL][Dab][Cha]VEC[Dab]-NH2; thioether N-14) | 190
12 | CC(C)C[C@H]1NC(=O)[C@H](CCN)NC(=O)[C@H](C(C)C)NC(=O)[C@H](Cc2ccc(-c3ccccc3)cc2)NC(=O)[C@H](C(C)C)NC(=O)[C@H](Cc2c[nH]c3ccccc23)NC(=O)[C@H](CC(=O)O)NC(=O)[C@H](Cc2ccc(OCC(=O)O)cc2)NC(=O)[C@H](Cc2ccsc2)NC(=O)CSC[C@@H](C(=O)N[C@H](CC(N)=O)C(N)=O)NC(=O)[C@H](CCCCN)NC(=O)[C@H](C(C)C)NC(=O)[C@H](CC2CCCCC2)NC(=O)[C@H](CCN)NC1=O [Compound 2612] ({CH2CO}-[3Thi]Y(Carboxymethyl)DWV[Bip]V[Dab][dL][Dab][Cha]VKC[dN]-NH2; thioether N-14) | 5.9
13 | COc1cccc(C[C@@H]2NC(=O)[C@H](CC(=O)O)NC(=O)[C@H](Cc3ccc(C(=O)O)cc3)NC(=O)[C@H](Cc3ccc(OCC(=O)O)cc3)NC(=O)CSC[C@@H](C(=O)N[C@@H](C)C(N)=O)NC(=O)[C@H]([C@@H](C)O)NC(=O)[C@H](C(C)C)NC(=O)[C@H](CC3CCCCC3)NC(=O)[C@H](CCN)NC(=O)[C@@H](CC(C)C)NC(=O)[C@H](CCCN)NC(=O)[C@H](CCC(=O)O)NC(=O)[C@H](Cc3ccc(-c4ccccc4)cc3)NC(=O)[C@H](C(C)C)NC2=O)c1 [Compound 1541] | 16.6
14 | CC(C)C[C@@H]1NC(=O)[C@H](Cc2c[nH]c3ccccc23)NC(=O)[C@H](CC(=O)O)NC(=O)[C@H](Cc2ccc(OCC(=O)O)cc2)NC(=O)[C@H](CN)NC(=O)CSC[C@@H](C(=O)N[C@@H](C)C(N)=O)NC(=O)[C@H]([C@@H](C)O)NC(=O)[C@H](C(C)C)NC(=O)[C@H](CC(C)C)NC(=O)[C@H](CCN)NC(=O)[C@@H](CC(C)C)NC(=O)[C@H](CCCN)NC(=O)[C@H](CCCNC(N)=O)NC(=O)[C@H](Cc2ccc(-c3ccccc3)cc2)NC1=O [Compound 1304] ({CH2CO}-[Dap]Y(Carboxymethyl)DWL[Bip][Cit][Orn][dL][Dab]LVTCA-NH2; thioether N-14) | 26.5
